In patent US7196110B2, “N-substituted tricyclic 3-aminopyrazoles as inhibitors for the treatment of cell proliferative disorders” (Janssen Phamaceutica N.V., priority 2002, dated 2007):

Molecular target: T1, PDGF-receptor beta enzyme comprising the tyrosine kinase domain (Homo sapiens, UniProt P09619)
T1 construct: from amino acid 545 to 1106 of GenBank Access NO: AAA36427
Experiment: Inhibition of PDGF-receptor kinase activity (cell-free, PLC1 peptide, 33P Flashplate)
Type: biochemical
Details: PDGF-R kinase activity; for inhibition at 10 µM: compound at 10 uM, read-out: Percent Inhibition @ 10 uM; for IC50: read-out: IC50
How it was run: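 The IC50 is the inhibitor level halving kinase activity relative to inhibitor-free wells, measured as 33P captured on a streptavidin-bound biotin-PLC1 peptide. The reaction ran 60 min at 30 °C in pH 8 Tris buffer with 1 mM DTT, 5 μM ATP and the 545–1106 kinase-domain enzyme.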

T1 sequence (P09619 545-1106): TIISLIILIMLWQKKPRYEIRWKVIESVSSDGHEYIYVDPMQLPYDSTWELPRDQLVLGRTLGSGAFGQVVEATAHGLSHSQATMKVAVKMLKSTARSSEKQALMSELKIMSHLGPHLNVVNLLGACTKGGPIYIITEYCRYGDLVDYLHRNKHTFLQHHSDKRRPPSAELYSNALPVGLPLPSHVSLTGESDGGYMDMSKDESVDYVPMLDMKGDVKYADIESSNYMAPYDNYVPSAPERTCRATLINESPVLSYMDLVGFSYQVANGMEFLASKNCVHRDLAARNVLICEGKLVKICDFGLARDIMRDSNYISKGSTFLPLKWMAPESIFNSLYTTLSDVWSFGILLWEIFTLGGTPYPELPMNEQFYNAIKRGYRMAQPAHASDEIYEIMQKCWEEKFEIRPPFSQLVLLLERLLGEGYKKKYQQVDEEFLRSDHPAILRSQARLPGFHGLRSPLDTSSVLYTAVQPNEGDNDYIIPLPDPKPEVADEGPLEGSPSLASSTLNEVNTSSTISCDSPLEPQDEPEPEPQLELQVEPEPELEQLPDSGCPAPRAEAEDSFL

inhibition at 10 µM [%] | IC50 [nM] | SMILES
98.5 | 193 | COc1cc2c(cc1OC)-c1c(c(Nc3cccc(F)c3)nn1C(=O)NCCNCCO)C2 [Compound 523, 3-(3-Fluoro-phenylamino)-6,7-dimethoxy-4H-indeno[1,2-c]pyrazole-1-carboxylic acid [2-(2-hydroxy-ethylamino)-ethyl]-amide]
78 | 2480 | CNCCNC(=O)n1nc(Nc2cccc(F)c2)c2c1-c1cc(OC)c(OC)cc1C2 [Compound 524, 3-(3-Fluoro-phenylamino)-6,7-dimethoxy-4H-indeno[1,2-c]pyrazole-1-carboxylic acid (2-methylamino-ethyl)-amide]
33 | 43200 | COc1cc2c(cc1OC)-c1c(c(Nc3cccc(F)c3)nn1C(=O)NCCNC(=O)C(C)C)C2 [Compound 525, 3-(3-Fluoro-phenylamino)-6,7-dimethoxy-4H-indeno[1,2-c]pyrazole-1-carboxylic acid (2-isobutyrylamino-ethyl)-amide]
73 | 8090 | COc1cc2c(cc1OC)-c1c(c(Nc3cccc(F)c3)nn1C(=O)NCCNC(C)=O)C2 [Compound 526, 3-(3-Fluoro-phenylamino)-6,7-dimethoxy-4H-indeno[1,2-c]pyrazole-1-carboxylic acid (2-acetylamino-ethyl)-amide]
46.5 | 17500 | C=C(C)C(=O)OCCNC(=O)n1nc(Nc2cccc(F)c2)c2c1-c1cc(OC)c(OC)cc1C2 [Compound 527, 2-Methyl-acrylic acid 2-{[3-(3-fluoro-phenylamino)-6,7-dimethoxy-4H-indeno[1,2-c]pyrazole-1-carbonyl]-amino}-ethyl ester]

Further lines, the molecule ahead of its results:

SMILES | inhibition at 10 µM [%] | IC50 [nM]
CCC1c2cc(OC)c(OC)cc2-c2nn(C(=O)COCc3ccccc3)c(Nc3cccc(Br)c3)c21 (stereo not drawn) [Compound 518, 2-Benzyloxy-1-[3-(3-bromo-phenylamino)-4-ethyl-6,7-dimethoxy-4H-indeno[1,2-c]pyrazol-2-yl]-ethanone] | 92.5 | 184
CCC1c2cc(OC)c(OC)cc2-c2c1c(Nc1cccc(Br)c1)nn2C(=O)COCc1ccccc1 (stereo not drawn) [Compound 519, 2-Benzyloxy-1-[3-(3-bromo-phenylamino)-4-ethyl-6,7-dimethoxy-4H-indeno[1,2-c]pyrazol-1-yl]-ethanone] | 97.5 | 139
COc1cc2c(cc1OC)-c1c(c(Nc3cccc(F)c3)nn1C(=O)NCCN1CCCC1)C2 [Compound 520, 3-(3-Fluoro-phenylamino)-6,7-dimethoxy-4H-indeno[1,2-c]pyrazole-1-carboxylic acid (2-pyrrolidin-1-yl-ethyl)-amide] | 100 | 65.2
COc1cc2c(cc1OC)-c1c(c(Nc3cccc(F)c3)nn1C(=O)NCCN1CCOCC1)C2 [Compound 521, 3-(3-Fluoro-phenylamino)-6,7-dimethoxy-4H-indeno[1,2-c]pyrazole-1-carboxylic acid (2-morpholin-4-yl-ethyl)-amide] | 97 | 55.9
COc1cc2c(cc1OC)-c1nn(C(=O)NCCN3CCOCC3)c(Nc3cccc(F)c3)c1C2 [Compound 522, 3-(3-Fluoro-phenylamino)-6,7-dimethoxy-4H-indeno[1,2-c]pyrazole-2-carboxylic acid (2-morpholin-4-yl-ethyl)-amide] | 94 | 791
C=C(C)C(=O)OCCNC(=O)n1nc2c(c1Nc1cccc(F)c1)Cc1cc(OC)c(OC)cc1-2 [Compound 528, 2-Methyl-acrylic acid 2-{[3-(3-fluoro-phenylamino)-6,7-dimethoxy-4H-indeno[1,2-c]pyrazole-2-carbonyl]-amino}-ethyl ester] | 93.5 | 196
COc1cc2c(cc1OC)-c1nn([C@@H]3O[C@H](C(=O)O)[C@@H](O)[C@H](O)[C@H]3O)c(Nc3cccc(F)c3)c1C2 [Compound 529, 6-[3-(3-Fluoro-phenylamino)-6,7-dimethoxy-4H-indeno[1,2-c]pyrazol-2-yl]-3,4,5-trihydroxy-tetrahydro-pyran-2-carboxylic acid] | 44 | 10600
